Measured values taken from patent publication US7790896B2, “RNA-selective probes for live cell imaging of nuclear structure and function” (New York University, priority 2006, dated 2010).

Columns and labels:
[1] = Fluorescent properties of free dye solution; format: physicochemical; conditions: for EM (emission λmax), Buffer / EX (excitation λmax), Buffer: TE buffer pH 7.5, dye 5 μM; for ε free (extinction coefficient) / ΦF free (quantum yield): TE buffer pH 7.5, dye 5 μM for E36, 10 μM for E144 and F22; for ΦF free (quantum yield): Rhodamine 6G standard
Experimental: (§1) The fluorescence spectra data in the primary screening and selected dyes titration assay study was obtained by Gemini XS plate reader. RNA solution was prepared right before the assay experiments to avoid possible degradation and contamination. In the primary screening, 1 mg/mL RNA (type VI from torula yeast) buffer solution was used. Point scans were carried out first using five Ex/Em point sets ([…], 400/500, 450/550, 500/600, 550/650 nm). Spectra scans were then carried out for the selected dyes. Excitation wavelengths were set at 350 nm, 400 nm, 450 nm, 500 nm, and 550 nm and the emission wavelengths were scanned. RNA (16S- and 23S-ribosomal from E. coli) and DNA (salmon testes) titration experiments and quantum yield/extinction coefficient determination for the three best dyes were carried out by the plate reader as well. Excitation λmax obtained from F-2500 Hitachi Fluorophotometer was used. Absorbance wavelength was determined by SpectraMax Plus^384 absorbance plate reader. […] was chosen as standard and 480 nm was used as excitation wavelength in the scanning for quantum yield determination. […] Generally, the λmax (nm) of emission was determined by scanning a fixed excitation first, and the μmax (nm) of excitation was determined by scanning emission spectrum with a fixed μem (nm). The detailed fluorescent properties of three selected dyes including; excitation/emission μmax, the quantum yield and extinction coefficient of both free dye solution and dye-RNA solution were assessed (Table 5).

[2] = test system: RNA (16S- and 23S-ribosomal from E. coli); test: Fluorescent properties of dye-RNA solution; format: binding; conditions: for EM (emission λmax), RNA / EX (excitation λmax), RNA: TE buffer pH 7.5, dye 5 μM; for EM (emission λmax), RNA / EX (excitation λmax), RNA / ΦF RNA (quantum yield) / ε RNA (extinction coefficient): RNA 200 μg/mL; for ΦF RNA (quantum yield) / ε RNA (extinction coefficient): TE buffer pH 7.5, dye 5 μM for E36, 10 μM for E144 and F22; for ΦF RNA/ΦF free: ratio of quantum yields with RNA 200 μg/mL and free
Experimental: as §1

[3] = test system: RNA, 16S- and 23S-ribosomal from E. coli; test: Dye concentration dependency titration with RNA; format: binding; conditions: dye 0.15 μM to 10 μM, RNA 50 μg/mL
Experimental: Samples containing 50 μg/mL RNA in TE buffer with an increasing concentration of compound from 0.15 μM to 10 μM. Shown here is the intensity increase recorded at the emission λmax wavelength of each dye. […] The samples contain fixed concentration of dyes (E36: 5 μM; E144: 10 μM; F22: 10 μM) in TE buffer with an increasing concentration of RNA or DNA from 0.19 μg/mL to 200 μg/mL. Data points were in duplicated in individual experiments, and error bars represent standard deviation.
The fluorescence spectra data in the primary screening and selected dyes titration assay study was obtained by Gemini XS plate reader. RNA solution was prepared right before the assay experiments to avoid possible degradation and contamination. In the primary screening, 1 mg/mL RNA (type VI from torula yeast) buffer solution was used. Point scans were carried out first using five Ex/Em point sets ([…], 400/500, 450/550, 500/600, 550/650 nm). Spectra scans were then carried out for the selected dyes. Excitation wavelengths were set at 350 nm, 400 nm, 450 nm, 500 nm, and 550 nm and the emission wavelengths were scanned. RNA (16S- and 23S-ribosomal from E. coli) and DNA (salmon testes) titration experiments and quantum yield/extinction coefficient determination for the three best dyes were carried out by the plate reader as well. Excitation λmax obtained from F-2500 Hitachi Fluorophotometer was used. Absorbance wavelength was determined by SpectraMax Plus^384 absorbance plate reader. […] was chosen as standard and 480 nm was used as excitation wavelength in the scanning for quantum yield determination.
The RNA binding characteristics of these dyes was further examined by determining if the fluorescent intensity was concentration dependent (FIG. 3A). […] Moreover, a slight emission Ma red shift was observed (total 8 nm) with the increasing concentration of E36.

[4] = test system: Fixed-permeabilized Hela cells; test: DNase and RNase digest test; format: cell-based, human; conditions: dye 50 μM, 2 hours; for Fluorescence after RNase digest: 25 μg/mL DNase-Free RNase; for Fluorescence after DNase digest: 30 μg/mL DNase
Experimental: Cells were first fixed using cold (−4° C.) pure methanol for 1 minute at ambient temperature. The cell membrane was then permeabilized by immersion in 1% Triton X-100 for 2 minutes. After rinsing with PBS twice, 100 μL of 50 μM dye PBS solution was added to three adjacent wells. Cells were then incubated in this dye PBS solution for 15 minutes in ambient temperature before being rinsed with clean PBS twice. 100 μL clean PBS (as control experiment), 30 μg/mL DNase (Sigma), or 25 μg/mL DNase-Free RNase (GE) was added to the three adjacent wells and incubated at 37° C. in 5% CO2 for 2 hours. Cells were rinsed with clean PBS twice before imaging. For each dye test, the fluorescent images were obtained using equal exposure time for control, DNase and RNase experiments. DAPI (10 μM) in PBS and SYTO®RNASelect (5 μM) in PBS solution were used for dual staining experiments. Duplicate experiments have been tested.
To further confirm that the compounds selectively bind RNA, a deoxyribonuclease (DNase) and ribonuclease (RNase) digest test was performed. In DNase digest, only the DNAs in the cell would be hydrolyzed. By contrast, in RNase digest, only RNAs would be hydrolyzed. Fixed-permeabilized Hela cells were used in this experiment and DAPI and SYTO®RNASelect were used as control dyes (FIG. 6). […] Still, its higher RNA-selective binding in live cell might be due to the complicated in vivo live cell environment, which may preferably direct this dye to nucleoli.

[5] = test system: Hela, A549, 3T3, and 3T3-L1; test: Optimization of working concentration and imaging properties, live cell staining; format: cell-based, human, mouse; conditions: 20, 10, 5 and 1 μM tested in four cell lines
Experimental: All cell staining imaging followed the same procedure. Generally, dyes in dry state were first dissolved in DMSO to obtain the stock solution. The stock solutions were then added directly to the cell culture wells to reach the desired concentration. Total DMSO was lower than 0.1%. After adding dyes, cells were incubated at 37° C. in 5% CO2 for 25 minutes. The medium was then removed and cells were rinsed with fresh medium twice. The cells were then imaged at ambient temperature in the medium. Exposure time was kept less than 5 seconds and adjusted to each dye.
In fluorescence microscopic imaging studies, it is always desirable to use as little dye as possible to stain organelles in order to maximize specificity and minimize dye toxicity and cell death. To determine the lowest working concentration of each dye, four different concentrations (20 μM, 10 μM, 5 μM, and 1 μM) were tested in four cell lines (Hela, A549, 3T3, and 3T3-L1). Dyes E36, E144, and F112 were imaged using FITC channel, and F22 was imaged using Cy3 channel. Generally, a quality fluorescence signal for each dye was produced using a concentration of 5 μM for E36, E144, and F22 and 10 μM for F112 (Table 5). It was interesting to observe that compound F22 was brighter in 3T3 cells, and a concentration of 1 μM was sufficient for a clear image (FIG. 4). […] Little photobleaching and no obvious cell morphology or viability changes were observed during the tests.

Row | Structure (SMILES) | EM (emission λmax), Buffer [1] [nm] | EX (excitation λmax), Buffer [1] [nm] | ε free (extinction coefficient) [1] [M⁻¹ cm⁻¹] | ΦF free (quantum yield) [1] | EM (emission λmax), RNA [2] [nm] | EX (excitation λmax), RNA [2] [nm] | ΦF RNA (quantum yield) [2] | ε RNA (extinction coefficient) [2] [M⁻¹ cm⁻¹] | ΦF RNA/ΦF free [2] | Emission λmax red shift with increasing dye concentration [3] | Fluorescent intensity vs dye concentration (titration curve) [3] | Fluorescence after RNase digest [4] | Fluorescence after DNase digest [4] | Optimum Concentration for live cell imaging [5] [µM]
1 | COc1ccc2c(ccc(/C=C/c3ccc(N(C)C)cc3)[n+]2C)c1 [Dye F22] | 598 | 492 | 17400 | 0.0007 | 620 | 548 | 0.0075 | 20000 | 10.7 | did not show obvious wavelength shift | evidence of saturation at high concentration | overall decrease in intensity | nucleolar stain remained bright | –
2 | COc1cc(OC)c(/C=C/c2ccc3ccccc3[n+]2C)c(OC)c1 [Dye E144] | 532 | 440 | 13200 | 0.0056 | 532 | 456 | 0.0310 | 14600 | 5.5 | did not show obvious wavelength shift | almost linear curve | not detectable | not detectable | 5
3 | C[n+]1c(/C=C/c2c[nH]c3ccccc23)ccc2ccccc21 [Dye E36] | 541 | 457 | 39400 | 0.0019 | 548 | 497 | 0.1041 | 43100 | 54.6 | 8 nm | evidence of saturation at high concentration | dramatically diminished | stayed almost the same | 5
